Measured values taken from publication PMC8356711 (Research in Pharmaceutical Sciences, 2021).
“Also recorded” adds a separate entry of the source.

Assays:
mushroom tyrosinase [1] = target: T1, mushroom tyrosinase (Agaricus bisporus, UniProt C7FF04); test: biochemical
mushroom tyrosinase [2] = target: T1, mushroom tyrosinase; conditions: Lineweaver-Burk plot, L-DOPA substrate

T1 sequence (C7FF04 1-392): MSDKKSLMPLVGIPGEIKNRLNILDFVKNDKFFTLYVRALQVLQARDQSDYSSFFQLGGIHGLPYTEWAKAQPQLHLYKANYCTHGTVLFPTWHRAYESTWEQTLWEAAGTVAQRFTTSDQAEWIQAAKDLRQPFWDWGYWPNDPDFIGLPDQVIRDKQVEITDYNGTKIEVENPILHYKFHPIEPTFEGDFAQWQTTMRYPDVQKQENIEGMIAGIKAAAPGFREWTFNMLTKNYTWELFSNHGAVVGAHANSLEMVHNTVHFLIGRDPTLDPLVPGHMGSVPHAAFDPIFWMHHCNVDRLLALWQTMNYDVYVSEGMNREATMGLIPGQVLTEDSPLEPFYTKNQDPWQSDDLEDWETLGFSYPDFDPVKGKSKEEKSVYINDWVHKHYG

SMILES | IC50 (mushroom tyrosinase [1]) [µM] | inhibition type (mushroom tyrosinase [2])
O=C1/C(=C/c2ccc(Cl)cc2)CCc2cc(O)ccc21 [C7, (E)-2-(4-chlorobenzylidene)-6-hydroxy-3,4-dihydronaphthalen-1(2H)-one] | 22.4 ± 3.1 | 
COc1ccc(/C=C2\CCc3cc(O)ccc3C2=O)cc1 [C1, (E)-6-hydroxy-2-(4-methoxybenzylidene)-3,4-dihydronaphthalen-1(2H)-one] | 17.6 ± 1.1 | 
COc1ccccc1/C=C1\CCc2cc(O)ccc2C1=O [C3, (E)-6-hydroxy-2-(2-methoxybenzylidene)-3,4-dihydronaphthalen-1(2H)-one] | 11.1 ± 2.5 | 
COc1cc(/C=C2\CCc3cc(O)ccc3C2=O)cc(OC)c1O [C9, (E)-6-hydroxy-2-(4-hydroxy-3,5-dimethoxy-benzylidene)-3,4-dihydronaphthalen-1(2H)-one] | > 50 | 

The remaining molecules from weak to strong by IC50 (mushroom tyrosinase [1]), led by results:

IC50 (mushroom tyrosinase [1]) [µM] | SMILES | inhibition type (mushroom tyrosinase [2])
48.6 ± 2.9 | O=C1/C(=C/c2ccc(O)cc2)CCc2cc(O)ccc21 [C5, (E)-6-hydroxy-2-(4-hydroxybenzylidene)-3,4-dihydronaphthalen-1(2H)-one] | 
21.4 ± 3.1 | CCOc1cc(/C=C2\CCc3cc(O)ccc3C2=O)ccc1O [C4, (E)-2-(3-ethoxy-4-hydroxybenzylidene)-6-hydroxy-3,4-dihydronaphthalen-1(2H)-one] | 
17.6 ± 2.4 | COc1ccc(/C=C2\CCc3cc(O)ccc3C2=O)cc1OC [C6, (E)-2-(3,4-dimethoxybenzylidene)-6-hydroxy-3,4-dihydronaphthalen-1(2H)-one] | 
8.8 ± 1.8 | COc1cc(/C=C2\CCc3cc(O)ccc3C2=O)cc(OC)c1OC [C2, (E) - 6-hydroxy - 2-(3,4,5-trimethoxy-benzylidene)-3,4-dihydronaphthalen-1(2H)-one] | competitively; also recorded: competitive tyrosinase inhibitor
